Assay results published in paper PMC5793121 (Toxins, 2018).
Read-outs that look alike come from different tables or passages of the source. No end group written: not given here.

Key:
[1] = for AUC(0 → t) / Cmax / T1/2: single, [125I]-Az, blood radioactivity, 5 animals per time point
Method: The pharmacokinetic study was performed using 163 male ICR mice. Four experimental groups with 40 animals in each were formed. Three intact mice were used as control animals. The animals of the first two experimental groups were intravenously injected with 0.25 and 0.50 mg/kg [^125I]-Az, respectively. The animals of the other two experimental groups were intramuscularly injected with 0.25 and 0.50 mg/kg [^125I]-Az, respectively. To estimate Az elimination rate, animal blood samples were taken from the orbital sinus 5, 15, 30, 60 min and 1, 2, 4 and 24 h after [^125I]-Az administration. The obtained blood samples were weighed. For each indicated time point, [^125I]-Az concentration was calculated as a mean value in blood samples of five animals. The radioactivity (cpm) in the blood samples was counted using a Wallac 1470 WIZARD® Gamma Counter (Perkin Elmer, Waltham, MA, USA). […] Radioactivity data (cpm) were re-calculated to the concentration of [^125I]-Az in the obtained blood samples. The specific pharmacokinetic parameters (AUC (0 → t), Cmax, T1/2) of [^125I]-Az were estimated.

[2] = system: human muscle-type nAChR fetal form α1β1γδ; conditions: Xenopus oocytes; cited from earlier work
[3] = target: T1, rat neuronal heteromeric α4β2 nAChR (Rattus norvegicus, UniProt P09483+P12390); format: cell-based
T1 construct: expressed in transfected cells; host or cells: Xenopus laevis oocytes injected with pcDNA3.1 plasmids, α4:β2 1:1
T1 sequence (P09483 31-630): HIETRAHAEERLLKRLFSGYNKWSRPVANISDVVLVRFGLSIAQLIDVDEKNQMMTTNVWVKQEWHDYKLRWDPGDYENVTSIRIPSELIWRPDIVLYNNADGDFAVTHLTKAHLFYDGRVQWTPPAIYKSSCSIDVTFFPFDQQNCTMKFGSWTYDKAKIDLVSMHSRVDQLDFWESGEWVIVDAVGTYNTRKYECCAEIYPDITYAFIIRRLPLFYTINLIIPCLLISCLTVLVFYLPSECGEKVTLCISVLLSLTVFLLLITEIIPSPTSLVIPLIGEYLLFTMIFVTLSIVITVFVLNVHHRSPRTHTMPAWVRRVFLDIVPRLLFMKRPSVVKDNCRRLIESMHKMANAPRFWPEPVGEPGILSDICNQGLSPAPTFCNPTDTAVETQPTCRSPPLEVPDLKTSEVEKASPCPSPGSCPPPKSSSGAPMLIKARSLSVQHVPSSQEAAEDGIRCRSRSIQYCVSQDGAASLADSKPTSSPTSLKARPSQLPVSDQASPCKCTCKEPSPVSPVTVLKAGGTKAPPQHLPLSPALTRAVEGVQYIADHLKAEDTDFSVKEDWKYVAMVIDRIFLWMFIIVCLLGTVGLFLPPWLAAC
T1 sequence (P12390 25-500): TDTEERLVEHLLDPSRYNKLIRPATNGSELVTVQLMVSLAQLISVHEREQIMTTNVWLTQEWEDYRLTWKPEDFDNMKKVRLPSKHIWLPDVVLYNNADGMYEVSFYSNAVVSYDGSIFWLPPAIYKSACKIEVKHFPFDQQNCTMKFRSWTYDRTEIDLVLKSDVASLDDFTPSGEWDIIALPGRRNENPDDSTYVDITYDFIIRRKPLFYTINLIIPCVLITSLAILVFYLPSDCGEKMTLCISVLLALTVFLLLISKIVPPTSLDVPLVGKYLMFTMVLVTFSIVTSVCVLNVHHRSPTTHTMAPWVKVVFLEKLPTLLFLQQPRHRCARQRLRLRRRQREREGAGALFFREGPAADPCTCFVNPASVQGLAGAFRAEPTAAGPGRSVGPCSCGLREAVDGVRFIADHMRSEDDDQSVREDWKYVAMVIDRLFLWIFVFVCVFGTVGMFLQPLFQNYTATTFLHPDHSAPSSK
Method: Ovary tissue from adult female Xenopus laevis was cut into small pieces and these pieces were digested with collagenase A (4 mg mL^−1, Worthington Biochemical Corp., Lakewood, NJ, USA) in Barth’s solution without calcium (88.0 mM NaCl, 1.1 mM KCl, 2.4 mM NaHCO3, 0.8 mM MgSO4, 15.0 mM HEPES/NaOH, pH 7.6) for 1.5 ± 2 h at 20 °C. The oocytes were stored in Barth’s solution with calcium (88.0 mM NaCl, 1.1 mM KCl, 2.4 mM NaHCO3, 0.3 mM Ca (NO3)2, 0.4 mM CaCl2, 0.8 mM MgSO4, 15.0 mM HEPES/NaOH, pH 7.6) supplemented with 63.0 μg/mL penicillin-G sodium salt, 40.0 μg/mL streptomycin sulfate and 40.0 μg/mL gentamicin. Stage V ± VI oocytes were selected and injected with 3 ng plasmids coding the rat α4 and β2 nAChR subunits (pcDNA3.1 vector) in a molar ratio of 1:1 using an Auto-Nanoliter Injector NanoJect-2 (Drummond Scientific Company, Broomall, PA, USA) in a total injection volume of 23 nL. After injection, oocytes were incubated at 18 °C in Barth’s solution with calcium for 48–120 h. Electrophysiological recordings were made using a Turbo TEC-03X amplifier (npi electronic GmbH, Tamm, Germany) and WinWCP recording software (University of Strathclyde, Glasgow, UK). […] To allow receptor recovery from desensitization, the oocytes were superfused for 5–10 min with buffer (1 mL/min) between ligand applications. Electrophysiological recordings were performed at a holding potential of −60 mV.

[4] = system: male ICR mice; format: in vivo, mouse; conditions: 7-day im 0.15 and 0.5 mg/kg
Method: For carrying out these experiments 90 male ICR mice were used, they were divided equally into three groups (30 animals per group) for each study and in these groups they were subdivided into subgroups of 10 mice each and treated as follows: mice of the first subgroup were injected with normal saline im, the second subgroup animals were treated with Az (0.15 mg/kg im) and the animals of the third subgroup were treated with Az (0.50 mg/kg im). The drugs were injected into the quadriceps muscle of the thigh (musculus quadriceps femoris) daily for seven days (1 mL/kg).
On the last 7th day of the Az administration, the mice of the second group (30 animals) were immunized intraperitoneally with a 1:1 mixture of 200 μL of bovine serum albumin (BSA, 0.5 mg/mL) with a complete Freund’s adjuvant. 10 days after the 1st immunization, the mice received the second 200 μL ip injection of the antigen (BSA, 0.5 mg/mL) in an incomplete Freund’s adjuvant (1:1 ratio).

[5] = target: T2, mouse muscle type α1β1εδ nAChR (Mus musculus, UniProt P02716+P04756+P20782); assay: Calcium imaging of ACh-evoked [Ca2+]i rise in Neuro2a cells expressing muscle nAChR (Case12 sensor); format: cell-based
T2 construct: expressed in transfected cells; host or cells: mouse neuroblastoma Neuro2a, transient transfection (pRBG4 plasmids), co-expressed with Case12 calcium sensor
T2 sequence (P09690 24-501): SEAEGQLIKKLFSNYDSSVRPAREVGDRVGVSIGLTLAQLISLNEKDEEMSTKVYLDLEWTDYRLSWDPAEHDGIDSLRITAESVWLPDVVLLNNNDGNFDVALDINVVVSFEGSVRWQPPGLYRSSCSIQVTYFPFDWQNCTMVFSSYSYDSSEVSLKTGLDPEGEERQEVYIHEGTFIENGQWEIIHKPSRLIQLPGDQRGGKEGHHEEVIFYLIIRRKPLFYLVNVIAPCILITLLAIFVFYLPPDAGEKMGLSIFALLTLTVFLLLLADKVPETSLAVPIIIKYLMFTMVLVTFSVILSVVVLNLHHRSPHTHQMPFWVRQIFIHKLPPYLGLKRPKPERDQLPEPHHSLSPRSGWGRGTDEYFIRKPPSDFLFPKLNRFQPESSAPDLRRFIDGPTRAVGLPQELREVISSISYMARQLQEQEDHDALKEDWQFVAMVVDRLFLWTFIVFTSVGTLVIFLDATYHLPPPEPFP
T2 sequence (P04756 21-457): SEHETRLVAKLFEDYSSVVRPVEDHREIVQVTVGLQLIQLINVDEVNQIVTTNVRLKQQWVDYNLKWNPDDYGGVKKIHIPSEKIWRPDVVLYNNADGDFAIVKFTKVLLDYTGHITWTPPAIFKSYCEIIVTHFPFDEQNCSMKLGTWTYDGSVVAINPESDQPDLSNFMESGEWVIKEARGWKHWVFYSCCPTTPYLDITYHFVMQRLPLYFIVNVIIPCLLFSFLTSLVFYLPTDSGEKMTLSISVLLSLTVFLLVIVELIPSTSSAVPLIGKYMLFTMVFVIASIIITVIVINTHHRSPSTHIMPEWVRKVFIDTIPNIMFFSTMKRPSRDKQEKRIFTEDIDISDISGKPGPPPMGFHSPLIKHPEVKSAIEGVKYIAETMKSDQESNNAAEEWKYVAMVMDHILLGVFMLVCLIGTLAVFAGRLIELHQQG
T2 sequence (P02716 25-520): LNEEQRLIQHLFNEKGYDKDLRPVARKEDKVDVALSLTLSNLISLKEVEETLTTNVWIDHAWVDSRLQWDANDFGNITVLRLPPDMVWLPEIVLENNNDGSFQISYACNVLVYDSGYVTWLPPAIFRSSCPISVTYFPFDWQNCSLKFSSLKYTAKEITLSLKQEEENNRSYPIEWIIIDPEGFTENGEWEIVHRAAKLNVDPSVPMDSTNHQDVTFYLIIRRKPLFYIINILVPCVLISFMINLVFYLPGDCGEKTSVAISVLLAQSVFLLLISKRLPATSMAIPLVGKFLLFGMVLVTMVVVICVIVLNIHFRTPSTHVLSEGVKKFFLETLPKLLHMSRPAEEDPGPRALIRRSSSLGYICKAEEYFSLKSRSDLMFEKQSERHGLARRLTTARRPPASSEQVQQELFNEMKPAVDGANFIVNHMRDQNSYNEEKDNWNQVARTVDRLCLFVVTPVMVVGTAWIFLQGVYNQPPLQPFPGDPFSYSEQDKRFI
T2 sequence (P20782 21-493): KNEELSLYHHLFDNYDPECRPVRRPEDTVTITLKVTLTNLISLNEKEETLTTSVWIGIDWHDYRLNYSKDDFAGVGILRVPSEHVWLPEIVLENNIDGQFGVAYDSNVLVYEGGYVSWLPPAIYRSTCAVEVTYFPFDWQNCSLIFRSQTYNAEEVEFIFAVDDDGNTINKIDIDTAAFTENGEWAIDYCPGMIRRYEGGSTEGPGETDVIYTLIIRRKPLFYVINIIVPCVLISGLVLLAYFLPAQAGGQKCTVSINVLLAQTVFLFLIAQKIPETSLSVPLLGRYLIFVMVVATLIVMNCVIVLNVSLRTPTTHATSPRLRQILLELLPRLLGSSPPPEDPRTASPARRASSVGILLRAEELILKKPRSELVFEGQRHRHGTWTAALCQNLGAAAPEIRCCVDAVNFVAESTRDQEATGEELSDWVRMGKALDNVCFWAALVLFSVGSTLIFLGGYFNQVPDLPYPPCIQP
Method: Mouse neuroblastoma Neuro2a cells were purchased from the Russian collection of cell cultures (Institute of Cytology, Russian Academy of Sciences, Saint Petersburg, Russia). Cells were cultured in DMEM (Paneco, Moscow, Russia) supplemented with 10% FBS. They were sub-cultured the day before transfection and were plated at a density of 10,000 cells per well in a 96-well black plate. On the next day Neuro2a cells were transiently transfected with plasmids coding mouse muscle α1β1δε nAChR (pRBG4-vector) and a fluorescent calcium sensor Case12 (pCase12-cyto vector, Evrogen, Moscow, Russia) in a molar ratio of 2:1 following a lipofectamine transfection protocol (ThermoFisher Scientific, Waltham, MA, USA). Human α7 nAChR (α7 nAChR-pCEP4) was expressed accordingly with a co-expression of the human chaperone Ric-3 (Ric3-pCMV6-XL5, OriGene, Rockville, MD, USA) in a molar ratio 4:1. The transfected cells were grown at 37 °C in a CO2 incubator for 48–72 h, before performing the calcium imaging assay.
Calcium imaging procedure was performed as published earlier. Briefly, after removing the growth medium, the transfected Neuro2a cells and cultivated SH-SY5Y cells were washed with a buffer containing 140 mM NaCl, 2 mM CaCl2, 2.8 mM KCl, 4 mM MgCl2, 20 mM HEPES, 10 mM glucose; pH 7.4. Neuro2a cells expressing muscle nAChR and the protein calcium sensor Case12 were proceeded directly, while SH-SY5Y cells expressing human α3-containing nAChRs natively were loaded with a fluorescent dye Fluo-4, AM (1.824 μM, ThermoFisher Scientific, Waltham, MA, USA) and a water-soluble probenecid (1.25 mM, ThermoFisher Scientific, Waltham, MA, USA) for 30 min at 37 °C and then were kept for 30 min at room temperature according to the manufacturer’s protocol.
To detect the human α7 nAChR-mediated calcium response, transfected Neuro2a cells were incubated with its positive allosteric modulator PNU120596 (10 μM, Tocris Bioscience, Bristol, UK) for 20 min at room temperature before acetylcholine (Sigma-Aldrich Chemie Gmbh, Munich, Germany) addition. To assess mouse muscle or human α3-containing nAChRs this step was skipped. […]
The plates were transferred to the multimodal microplate reader Hidex Sence (Hidex, Turku, Finland) where the cells were excited by light of 485 nm wavelength and emitted fluorescence was detected at 535 ± 10 nm. Fluorescence was recorded every 2 s for three minutes following agonist addition. Responses were measured as peak intensity minus basal fluorescence level and were expressed as a percentage of the maximal response obtained to agonist. Data files were analyzed using Hidex Sence software (Hidex, Turku, Finland) and OriginPro 7.5 software (OriginLab, Northampton, MA, USA, for statistical analysis).

[6] = system: mice; conditions: intraperitoneal administration to mice; cited from earlier work

DNWWPKPPHQGPRPPRPRPKP-NH2 [Az, azemiopsin]
excretion half-life ([1]; depending on administration way (iv or im), mice): 15 to 40 min
AUC(0 → t) ([1]; im 0.25 mg/kg, male ICR mice): 328 ng·h/mL
Cmax ([1]; im 0.25 mg/kg, male ICR mice): 278 ng/mL
T1/2 ([1]; im 0.25 mg/kg, male ICR mice): 18 min
AUC(0 → t) ([1]; im 0.50 mg/kg, male ICR mice): 622 ng·h/mL
Cmax ([1]; im 0.50 mg/kg, male ICR mice): 257 ng/mL
T1/2 ([1]; im 0.50 mg/kg, male ICR mice): 40.8 min
half-life T1/2 ([1]; intramuscular administration, 0.25 and 0.5 mg/kg, male ICR mice): 20 to 40 min
AUC(0 → t) ([1]; iv 0.25 mg/kg, male ICR mice): 214 ng·h/mL
Cmax ([1]; iv 0.25 mg/kg, male ICR mice): 517 ng/mL
T1/2 ([1]; iv 0.25 mg/kg, male ICR mice): 15.6 min
AUC(0 → t) ([1]; iv 0.50 mg/kg, male ICR mice): 542 ng·h/mL
Cmax ([1]; iv 0.50 mg/kg, male ICR mice): 745 ng/mL
T1/2 ([1]; iv 0.50 mg/kg, male ICR mice): 17.4 min
IC50 [2]: 1560 ± 370 nM
influence on ion currents induced by 20 μM nicotine in α4β2 nAChR [3]: no influence
effect on heteromeric rat α4β2 nAChR ([3]; concentrations up to 100 μM): no effect
immune response to BSA (IgG titers in blood serum) [4]: did not demonstrate any significant difference
IC50 ([5]; 30 μM ACh (EC100), transfected Neuro2a cells, Case12 sensor, 15 min preincubation, mean ± SEM, 4 independent experiments, read-out: IC50, inhibition of ACh-evoked calcium response of muscle nAChR): 19 ± 8 nM
selectivity to muscle receptor versus α7 nAChR ([5]; ratio of calcium imaging IC50 values α7 / muscle): about 140 times
LD50 [6]: 2.57 ± 0.27 mg/kg
